The values below come from ChEMBL document CHEMBL1136182, “Cage amines as the stopper inhibitors of cholinesterases” (Bioorg Med Chem Lett, 2003).

SMILES strings stand for the structures.

As usually defined, the Ki is a measure of affinity in units of concentration, obtained from inhibition or displacement.

Assay [1] concerns the target Acetylcholinesterase (Electrophorus electricus) (UniProt O42275). Put plainly: Selectivity ratio of inhibition of acetylcholinesterase-AChE to that of inhibition of butyrylcholinesterase-BChE.
The next assay addresses Acetylcholinesterase (Electrophorus electricus, UniProt O42275). In words: Inhibitory activity against acetylcholinesterase.
A further assay has as its target Butyrylcholinesterase (Equus caballus, UniProt Q9N1N9). Put plainly: Inhibitory activity against Butyrylcholinesterase.

Chain of Acetylcholinesterase (Electrophorus electricus) (O42275 24-633 limits assumed): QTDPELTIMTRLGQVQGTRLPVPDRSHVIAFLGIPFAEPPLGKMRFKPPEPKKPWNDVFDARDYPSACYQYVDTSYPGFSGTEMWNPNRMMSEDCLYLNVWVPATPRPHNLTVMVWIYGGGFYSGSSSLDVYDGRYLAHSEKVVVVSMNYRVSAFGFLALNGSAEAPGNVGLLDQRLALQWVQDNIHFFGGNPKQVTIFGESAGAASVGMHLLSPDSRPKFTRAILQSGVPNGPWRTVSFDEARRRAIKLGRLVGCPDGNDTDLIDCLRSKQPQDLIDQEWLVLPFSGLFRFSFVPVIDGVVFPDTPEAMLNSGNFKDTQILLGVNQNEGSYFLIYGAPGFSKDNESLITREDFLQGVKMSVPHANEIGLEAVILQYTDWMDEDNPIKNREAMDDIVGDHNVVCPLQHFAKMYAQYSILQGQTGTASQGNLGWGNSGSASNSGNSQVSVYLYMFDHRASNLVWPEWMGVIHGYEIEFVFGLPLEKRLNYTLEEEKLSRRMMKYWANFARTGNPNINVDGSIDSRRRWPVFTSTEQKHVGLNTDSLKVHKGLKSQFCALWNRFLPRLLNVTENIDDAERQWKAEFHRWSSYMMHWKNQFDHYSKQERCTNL
Chain of Butyrylcholinesterase (Q9N1N9 whole entry): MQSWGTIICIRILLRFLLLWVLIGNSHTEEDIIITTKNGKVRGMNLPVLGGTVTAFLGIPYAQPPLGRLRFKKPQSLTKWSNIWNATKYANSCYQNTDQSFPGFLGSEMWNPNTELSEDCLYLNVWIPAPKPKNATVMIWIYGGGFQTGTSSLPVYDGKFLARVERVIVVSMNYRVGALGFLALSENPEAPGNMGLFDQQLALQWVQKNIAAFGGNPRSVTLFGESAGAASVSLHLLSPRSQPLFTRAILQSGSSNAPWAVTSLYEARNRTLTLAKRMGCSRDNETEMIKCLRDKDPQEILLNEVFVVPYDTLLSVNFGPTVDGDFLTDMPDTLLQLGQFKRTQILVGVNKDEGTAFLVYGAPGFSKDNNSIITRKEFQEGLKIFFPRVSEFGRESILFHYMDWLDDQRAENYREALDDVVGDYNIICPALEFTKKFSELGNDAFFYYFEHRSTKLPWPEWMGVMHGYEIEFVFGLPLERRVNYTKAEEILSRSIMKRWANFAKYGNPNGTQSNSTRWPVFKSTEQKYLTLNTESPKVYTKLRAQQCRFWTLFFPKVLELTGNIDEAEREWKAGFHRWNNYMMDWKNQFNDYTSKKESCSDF
Chain of Acetylcholinesterase (O42275 whole entry): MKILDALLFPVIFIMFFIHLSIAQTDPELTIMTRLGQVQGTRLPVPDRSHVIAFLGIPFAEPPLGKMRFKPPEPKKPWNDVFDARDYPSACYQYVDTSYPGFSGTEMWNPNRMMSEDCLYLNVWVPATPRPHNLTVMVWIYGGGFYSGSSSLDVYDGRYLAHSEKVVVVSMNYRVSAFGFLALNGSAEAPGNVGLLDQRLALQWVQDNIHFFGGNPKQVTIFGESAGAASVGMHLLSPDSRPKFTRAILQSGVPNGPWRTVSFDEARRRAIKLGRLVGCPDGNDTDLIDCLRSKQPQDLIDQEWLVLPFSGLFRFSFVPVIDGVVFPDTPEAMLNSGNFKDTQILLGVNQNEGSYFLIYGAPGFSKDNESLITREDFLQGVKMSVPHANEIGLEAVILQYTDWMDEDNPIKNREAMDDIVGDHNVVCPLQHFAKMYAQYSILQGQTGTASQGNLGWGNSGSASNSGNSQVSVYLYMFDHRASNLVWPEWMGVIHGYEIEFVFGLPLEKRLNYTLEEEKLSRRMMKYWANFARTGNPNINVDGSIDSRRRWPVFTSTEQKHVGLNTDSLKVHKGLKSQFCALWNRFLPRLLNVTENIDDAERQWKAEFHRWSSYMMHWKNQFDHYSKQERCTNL

In the case of `Clc1ccccc1CNC1C2N(Cc3ccccc3Cl)C3C(N1Cc1ccccc1Cl)N(Cc1ccccc1Cl)C1(CC1N2Cc1ccccc1Cl)N3Cc1ccccc1Cl` (centres undefined), the Ratio in assay [1] stood at 3.9. In addition, the inhibitory constant (Ki) on Acetylcholinesterase turned out to be 39 nM; at Butyrylcholinesterase, 10 nM.

`c1cc2c(cc1CNC1C3N(Cc4ccc5c(c4)OCO5)C4C(N1Cc1ccc5c(c1)OCO5)N(Cc1ccc5c(c1)OCO5)C1(CC1N3Cc1ccc3c(c1)OCO3)N4Cc1ccc3c(c1)OCO3)OCO2` (centres undefined): the Ratio in assay [1] worked out at 1. Also, the inhibition constant (Ki) on Acetylcholinesterase was determined as 320 nM; on Butyrylcholinesterase, 310 nM.

As for `COc1cc(CNC2C3N(Cc4cc(OC)cc(OC)c4)C4C(N2Cc2cc(OC)cc(OC)c2)N(Cc2cc(OC)cc(OC)c2)C2(CC2N3Cc2cc(OC)cc(OC)c2)N4Cc2cc(OC)cc(OC)c2)cc(OC)c1` (centres undefined), in assay [1], the Ratio was 2.2. Further, the Ki on Acetylcholinesterase was 130 nM; at Butyrylcholinesterase it was 60 nM.
